Measured values taken from US9884067B2, “Androgen receptor down-regulating agents and uses thereof” (UNIVERSITY OF MARYLAND EASTERN SHORE, priority 2013, dated 2018).
Where “and” joins values, the source holds several entries; their conditions need not be identical. Equal entries are not always repeated.

What was measured:
human CYP17A1 (CYP171dH) = target: T1, human CYP17A1 (CYP171dH) (Homo sapiens, UniProt P05093); experiment: CYP17 inhibition studies; format: biochemical; settings: each in duplicate, from dose-response curves
T1 sequence (P05093 with tags, fused parts or gaps limits assumed): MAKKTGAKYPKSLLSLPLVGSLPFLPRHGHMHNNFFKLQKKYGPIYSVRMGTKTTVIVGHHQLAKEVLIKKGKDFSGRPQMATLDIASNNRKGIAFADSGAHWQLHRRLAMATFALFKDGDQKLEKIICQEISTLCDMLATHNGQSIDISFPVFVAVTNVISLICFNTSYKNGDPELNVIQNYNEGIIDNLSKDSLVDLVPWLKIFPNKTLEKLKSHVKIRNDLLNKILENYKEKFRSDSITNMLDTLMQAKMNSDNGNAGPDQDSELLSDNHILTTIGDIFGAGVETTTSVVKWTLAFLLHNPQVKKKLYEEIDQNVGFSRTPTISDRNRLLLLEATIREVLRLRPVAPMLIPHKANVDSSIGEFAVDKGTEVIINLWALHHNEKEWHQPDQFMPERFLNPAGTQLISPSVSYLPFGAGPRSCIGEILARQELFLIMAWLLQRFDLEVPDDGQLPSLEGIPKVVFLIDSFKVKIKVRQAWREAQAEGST
Description: Some compounds were evaluated for their ability to inhibit CYP17 enzyme. A truncated version of human CYP17A1 (CYP171dH) was expressed in E. coli and then purified to homogeneity.

AR in LNCaP cells = target: T2, AR in LNCaP cells (Homo sapiens, UniProt P10275, T878A); experiment: Whole cell competitive binding assay with [3H]R1881; settings: read-out: inhibition of [3H]R1881 binding / displacement
T2 sequence (P10275 1-920 T878A): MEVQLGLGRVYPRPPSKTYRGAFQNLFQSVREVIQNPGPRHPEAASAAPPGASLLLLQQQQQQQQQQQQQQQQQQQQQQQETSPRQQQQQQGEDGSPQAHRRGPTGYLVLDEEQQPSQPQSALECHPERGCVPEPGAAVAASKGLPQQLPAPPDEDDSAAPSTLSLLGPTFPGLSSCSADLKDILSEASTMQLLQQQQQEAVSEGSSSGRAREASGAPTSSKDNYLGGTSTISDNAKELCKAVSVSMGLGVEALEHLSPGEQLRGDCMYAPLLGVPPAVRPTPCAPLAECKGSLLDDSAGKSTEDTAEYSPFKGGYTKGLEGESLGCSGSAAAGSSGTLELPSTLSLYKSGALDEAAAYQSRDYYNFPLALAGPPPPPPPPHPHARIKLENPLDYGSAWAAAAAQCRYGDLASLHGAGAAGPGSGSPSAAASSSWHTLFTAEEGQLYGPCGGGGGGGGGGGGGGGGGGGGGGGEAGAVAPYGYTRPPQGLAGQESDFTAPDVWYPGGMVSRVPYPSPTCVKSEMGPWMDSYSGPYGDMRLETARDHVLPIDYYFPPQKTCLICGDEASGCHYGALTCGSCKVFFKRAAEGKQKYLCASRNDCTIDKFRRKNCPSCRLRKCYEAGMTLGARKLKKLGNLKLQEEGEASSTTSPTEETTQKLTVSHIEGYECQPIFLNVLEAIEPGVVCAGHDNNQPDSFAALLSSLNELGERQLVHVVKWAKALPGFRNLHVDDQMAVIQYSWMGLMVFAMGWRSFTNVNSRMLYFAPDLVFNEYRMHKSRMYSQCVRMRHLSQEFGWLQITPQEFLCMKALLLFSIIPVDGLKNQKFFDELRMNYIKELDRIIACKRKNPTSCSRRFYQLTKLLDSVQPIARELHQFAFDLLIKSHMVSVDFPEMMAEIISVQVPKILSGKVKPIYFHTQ
Description: The androgen receptor competitive binding assays were performed with the synthetic androgen methyltrienolone [^3H]R1881. […] To determine the kinetics of [^3H]R1881 binding to the LNCaP AR cells were plated (2-3×10^5 cells/well) in 24 well multiwell dishes in steroid-free medium and allowed to attach. […] Following a 2 hour incubation period at 37° C., cells were washed twice with ice-cold DPBS and solubilized in DPBS containing 0.5% SDS and 20% glycerol. Extracts were removed and cell associated radioactivity counted in a scintillation counter. The data was analyzed, including Kd and Bmax determination, by nonlinear regression using Graphpad Prism software (GraphPad Software, Inc, San Diego, Calif.). When the concentration of [^3H]R1881 required to almost saturate AR in both cell lines was established (5.0 nM), the ability of the test compounds (1 nM-10 μM) to displace [^3H]R1881 (5.0 nM) from the receptors was determined as described above. The IC50 of each compound was determined by nonlinear regression with Graphpad Prism software (GraphPad Software, Inc, San Diego, Calif.).

AR [1] = target: T3, AR (Homo sapiens, UniProt P10275, T878A); experiment: Immunocytochemical analysis of AR expression in LNCaP cells; format: cell-based; settings: 5 μM for 48 h
T3 construct: host or cells: LNCaP
T3 sequence (P10275 1-920 T878A): T2 sequence (P10275 1-920 T878A)

AR [2] = target: T3, AR; experiment: AR down-regulation, western blot analysis in LNCaP cells; format: cell-based; settings: at 15 μM, 24 h
Description: (§1) For the Western blot analyses, LNCaP or CWR22v1 prostate cancer cells were cultured. The cells were then treated with the indicated compounds and whole cell lysates were prepared using RIPA lysis buffer (Sigma Aldrich) and protease and phosphatase inhibitors (Sigma Aldrich). All of the antibodies were ordered from cell signaling technology. Protein content was determined using the Bradford Assay (Bio-Rad, Hercules, Calif., USA). Protein was subjected to SDS-PAGE and transferred onto nitrocellulosemembrane. Membranes were then incubated with secondary antibody (cell signaling technology) at room temperature for 1 hour. Bands were visualized by chemiluminescence (Millipore). Protein expression was normalized to β-actin and densitometry was carried out using Image J or ImageQuant 5.0 (Molecular Dynamics, Sunnyvale, Calif., USA). CWR22Rv1 cells were used for endogenous levels of splice variant AR-3. Protein levels were analyzed with respective antibodies; full length AR and β-actin antibodies were purchased from cell signaling, antibody specific for splice variant AR-3 was obtained from Dr. Yun Qiu, University of Maryland, School of Medicine, Baltimore.

full-length AR = experiment: Down-regulation of full-length AR, western blot in CWR22rv1 cells; format: cell-based, human; settings: CWR22rv1 prostate cancer cell line
Description: (§2) Due to the potential implication of AR splice variants lacking the ligand-binding domain (truncated AR) in driving the progression of CRPC, the effects of the compounds on the down-regulation of AR-3 (also called AR-V7) were determined.
as §1, with “USA).” for “USA). CWR22Rv1 cells were used for endogenous levels of splice variant AR-3. Protein levels were analyzed with respective antibodies; full length AR and β-actin antibodies were purchased from cell signaling, antibody specific for splice variant AR-3 was obtained from Dr. Yun Qiu, University of Maryland, School of Medicine, Baltimore.”

AR-3 (also called AR-V7) = target: T4, AR-3 (also called AR-V7) (Homo sapiens, UniProt P10275); experiment: Down-regulation of truncated AR splice variant, western blot in CWR22rv1 cells; format: cell-based; settings: CWR22rv1 prostate cancer cell line
T4 construct: endogenous in cells; host or cells: CWR22Rv1
T4 sequence (P10275 1-644 isoform P10275-3): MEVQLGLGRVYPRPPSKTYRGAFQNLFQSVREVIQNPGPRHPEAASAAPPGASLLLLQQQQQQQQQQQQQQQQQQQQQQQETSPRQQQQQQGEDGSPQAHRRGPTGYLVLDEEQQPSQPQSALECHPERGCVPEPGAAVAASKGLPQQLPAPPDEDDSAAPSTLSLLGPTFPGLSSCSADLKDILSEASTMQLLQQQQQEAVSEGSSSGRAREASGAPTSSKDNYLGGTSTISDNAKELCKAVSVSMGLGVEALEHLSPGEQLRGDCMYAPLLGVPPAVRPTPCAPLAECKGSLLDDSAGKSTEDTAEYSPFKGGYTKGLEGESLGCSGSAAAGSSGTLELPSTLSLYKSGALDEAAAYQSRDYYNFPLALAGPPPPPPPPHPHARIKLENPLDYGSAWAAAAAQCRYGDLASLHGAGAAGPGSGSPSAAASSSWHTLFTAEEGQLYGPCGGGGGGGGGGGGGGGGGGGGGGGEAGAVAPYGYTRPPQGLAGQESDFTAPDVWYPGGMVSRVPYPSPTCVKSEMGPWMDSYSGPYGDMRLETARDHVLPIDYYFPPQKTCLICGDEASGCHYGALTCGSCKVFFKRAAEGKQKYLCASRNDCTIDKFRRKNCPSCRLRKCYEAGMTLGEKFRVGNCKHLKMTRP
Description: as §2
as §1, with “USA).” for “USA). CWR22Rv1 cells were used for endogenous levels of splice variant AR-3. Protein levels were analyzed with respective antibodies; full length AR and β-actin antibodies were purchased from cell signaling, antibody specific for splice variant AR-3 was obtained from Dr. Yun Qiu, University of Maryland, School of Medicine, Baltimore.”

LNCaP cells = experiment: MTT colorimetric anti-proliferative assay; format: cell-based, human
Description: The cells were treated for 7 days with renewal of test compound and media on day 4. On the 7th day, medium was renewed and MTT (3-(4,5-dimethylthiazol-2-yl)-2,5-diphenyl-2H-tetrazolium bromide) (Sigma, St Louis, Mo., USA) solution (0.5 mg MTT per ml of media) was added to the medium such that the ratio of MTT: medium was 1:10. The cells were incubated with MTT for 2 hours. The medium was then aspirated and DMSO was added to solubilize the violet MTT-formazan product.

C[C@]12CC[C@H](OC(=O)n3ccnc3)CC1=CC[C@@H]1[C@@H]2CC[C@]2(C)C(n3cnc4ccccc43)=CC[C@@H]12 [Compound 47, 3β-(1H-Imidazole-1-carboxylate)-17-(1H-benzimidazol-1-yl)-androsta-5,16-diene]
melting point: 194 to 196 °C
IC50 (human CYP17A1 (CYP171dH)): 93.7 to 258 µM and 122 µM
inhibition at 30 µM (AR in LNCaP cells): 20%
AR levels in the nucleus (AR [1]): significant decrease in AR levels in the nucleus
AR down-regulation, fold more active than compound 5 (AR [2]): greater than 8 fold
down-regulation of full-length AR (full-length AR): significant down-regulation
down-regulation of truncated AR (AR-3) (AR-3 (also called AR-V7)): significant down-regulation
GI50 (LNCaP cells; Homo sapiens, LNCaP, 168 h, LNCaP, MTT, 7 days, Table 4, read-out: GI50 of C-3 modified compounds): 0.87 µM
fold superior anti-proliferative activity (LNCaP cells; relative to compound 5): ~4 fold
